According to PubChem BioAssay (NCI):
Several values for one entry are separate records, joined by “and”; a condition that tells them apart may be missing. Equal values may be shown once.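 Compound exposure: 48 hours, 5 concentrations, 96-well plates. At the GI50, growth is halved. TGI marks complete inhibition of growth.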 Where a SMILES comes first, the peptide text is derived from it. The star is where a group is joined. Cbz = O=C(OCc1ccccc1)*; CH2Cl = ClC*

Legend:
Assay in all cases: NCI-60 cell line screen, 48 h
SF-268 CNS = system: SF-268 CNS
SF-539 CNS = system: SF-539 CNS
DU-145 prostate = system: DU-145 prostate
UACC-257 melanoma = system: UACC-257 melanoma
HL-60(TB) leukemia = system: HL-60(TB) leukemia
M14 melanoma = system: M14 melanoma
HCT-116 colon = system: HCT-116 colon
K-562 leukemia = system: K-562 leukemia
SK-MEL-28 melanoma = system: SK-MEL-28 melanoma
LOX IMVI melanoma = system: LOX IMVI melanoma

Structure (SMILES) | GI50 (SF-268 CNS) | TGI (SF-268 CNS) | GI50 (SF-539 CNS) | TGI (SF-539 CNS) | GI50 (DU-145 prostate) | TGI (DU-145 prostate) | GI50 (UACC-257 melanoma) | TGI (UACC-257 melanoma) | GI50 (HL-60(TB) leukemia) | TGI (HL-60(TB) leukemia) | GI50 (M14 melanoma) | TGI (M14 melanoma) | GI50 (HCT-116 colon) | TGI (HCT-116 colon) | GI50 (K-562 leukemia) | TGI (K-562 leukemia) | GI50 (SK-MEL-28 melanoma) | TGI (SK-MEL-28 melanoma) | GI50 (LOX IMVI melanoma) | TGI (LOX IMVI melanoma)
NCCNc1c2c(c(NCCN)c3[nH]ccc13)C(=O)c1ccccc1C2=O | 0.17 µM | 0.662 µM | 0.0444 µM | 0.885 µM | 0.694 µM | 2.4 µM | 2.63 µM | 7.5 µM | 0.132 µM | 0.47 µM | 1.45 µM | 2.76 µM | < 0.0261 µM | 0.401 µM | 0.118 µM | 1.14 µM | 0.439 µM | 1.8 µM | 0.0111 µM | 0.242 µM
O=C(CSc1nc2ccccc2nc1-c1ccccc1)Nc1ccc(F)cc1 | 41.6 µM | > 100 µM | 18.6 µM | 35.4 µM | 51 µM | > 100 µM | 92.8 µM | > 100 µM | 66.9 µM | > 100 µM | > 100 µM | > 100 µM | 14.1 µM | 28.7 µM | 30.8 µM | > 100 µM | 63.9 µM | > 100 µM | 68 µM | > 100 µM
Cc1c2c(C#N)nccc2c(C)c2c1c1ccccc1n2Cc1ccccc1 | – | > 100 µM | – | > 100 µM | – | > 100 µM | – | > 100 µM | – | > 100 µM | – | > 100 µM | – | > 100 µM | – | > 100 µM | – | > 100 µM | – | > 100 µM
COc1cc(Cn2c(-c3ccccc3)c(Cl)c3c2-c2oncc2CC3)cc(OC)c1 | 9.61 µM | > 100 µM | 8.19 µM | 70.9 µM | 26.6 µM | > 100 µM | 39.3 µM | > 100 µM | 3.32 µM | 38.6 µM | 4.22 µM | 18.1 µM | 3.47 µM | 14.9 µM | 3.08 µM | > 100 µM | 8.52 µM | > 100 µM | 3.06 µM | 12 µM
COc1cc2c(cc1OCCCNC(=O)c1cccc3c(=O)c4ccccc4[nH]c13)N=C[C@@H]1CCCN1C2=O | < 0.0216 µM | 2.07 µM | < 0.01 µM | < 0.01 µM | < 0.01 µM | 13.5 µM | < 0.01 µM | 0.759 µM | – | > 77 µM | < 0.01 µM | < 0.01 µM | < 0.01 µM | > 100 µM | – | > 100 µM | < 0.01 µM | 2.89 µM | < 0.01 µM | –
[Cl][Hg][c]1cc[c]([Hg][Cl])o1 | 2.77 µM | 12.3 µM | 3.08 µM | 13.8 µM | 3.81 µM | 16.1 µM | 7.93 µM | 28.8 µM | 2.39 µM | 7.03 µM | 2.53 µM | 12 µM | 6.4 µM | 20.7 µM | 1.24 µM | 11.8 µM | 5.6 µM | 19.9 µM | 0.707 µM | 4.27 µM
CCSc1ncnc2c1ncn2C1OC(CO)C(O)C1O (stereo not drawn) | 1.02 µM | > 100 µM | 0.437 µM | > 100 µM | 0.129 µM | 32.5 µM | > 19.8 µM | > 100 µM | 0.354 µM | 31.1 µM | 0.589 µM | > 100 µM | 0.339 µM | > 100 µM | 3.06 µM | > 100 µM | > 48.3 µM | > 100 µM | 0.0945 µM | 16.8 µM
COc1c(OC[C@H](O)CN2CCOCC2)ccc2c3n(c(=NC(=O)c4cccnc4C)nc12)CCN3 | 12.4 µM | > 50 µM | 0.543 µM | 9.91 µM | 6.72 µM | > 50 µM | 1.11 µM | > 50 µM | 0.0538 µM | > 50 µM | 27.8 µM | > 50 µM | 24.2 µM | > 50 µM | > 50 µM | > 50 µM | 0.465 µM | > 50 µM | 1.57 µM | > 50 µM
O=C(O)Cc1cc(Cl)ccc1O | – | > 100 µM | – | > 100 µM | – | > 100 µM | – | > 100 µM | – | > 100 µM | – | > 100 µM | – | > 100 µM | – | > 100 µM | – | > 100 µM | – | > 100 µM
CC(C)CC(NC(=O)OCc1ccccc1)C(=O)NC(Cc1ccccc1)C(=O)CCl (stereo not drawn) (Cbz-Leu-Phe-CH2Cl; configuration not given here) | – | 9.88 µM | – | 10.2 µM | – | > 100 µM | – | 23.7 µM | – | 3.53 µM | – | 3.45 µM | – | 3.31 µM | – | 6.77 µM | – | 3.97 µM | – | 2.08 µM
C=C(Cl)C(Br)(CCl)CCC(Br)C(C)(C)Cl (stereo not drawn) | – | 8.32 µM and 8.82 µM | 1.98 µM | 3.86 µM | – | 26.7 µM | – | 7.78 µM and 8.58 µM | – | 5.19 µM | 2.01 µM | 7.74 µM and 4.9 µM | – | 3.14 µM and 3.21 µM | 7.84 µM | 9.43 µM and 40.4 µM | 5.88 µM | 14.2 µM | 1.76 µM | 3.73 µM and 4.22 µM
CC(=O)OC12C=CC(=O)N1c1ccccc1C(=O)O2 (stereo not drawn) | – | > 100 µM | – | > 100 µM | > 100 µM | > 100 µM | – | > 100 µM | – | > 100 µM | – | > 100 µM | – | > 100 µM | – | > 100 µM | – | > 100 µM | – | > 100 µM
